In patent US20100150844A1, “USE OF 8-QUINOLINOL AND ITS ANALOGS TO TARGET CANCER STEM CELLS” (The Johns Hopkins University, priority 2006, published 2010):
“Also recorded” adds a separate entry of the source. Like-named read-outs stand apart in the source and are kept apart here. Non-standard residues stand in square brackets, D forms with d. Residues, ends and D or L forms follow the SMILES beside them. *: point of attachment. Nle = CCCC[C@H](N)C(=O)O; Cbz = O=C(OCc1ccccc1)*

Key:
MCF7 cells = assay: Cell proliferation assay (MTT), MCF7 parental cells; assay type: cell-based, human
Description: (§1) FIG. 2. Susceptibility of MCF7 sphere cells to common anticancer drugs compared with MCF7 cells. Single MCF7 and MCF7 sphere cells were inoculated into 96 well plates at a concentration of 5000 cells per well. After overnight culture, cells were subject to selected clinical drug treatment at the indicated dose for three days. Cell proliferation was determined by MTT assay.
(§2) Cell proliferation assay. […] Each concentration was repeated three times.

MCF7 sphere cells = assay: Cell proliferation assay (MTT), MCF7 sphere cells; assay type: cell-based, human
Description: as §1
MCF7 and MCF7 sphere cell culture. Human breast cancer cell line MCF7 cells, MDA-MB-435 cells were obtained from ATCC (American Type Culture Collection). Cells were grown in Dulbecco's Modified Eagle's Medium (DMEM) (Invitrogen) supplemented with 10% fetal bovine serum (FBS) (Invitrogen), 100 units/ml penicillin and 100 ug/ml streptomycin (Invitrogen), in a 37° C. incubator containing 5% CO2. To isolate and culture MCF7 sphere cells, SP cells were sorted based on protocol shown below. Sphere cell culture was performed according to published protocol with modifications^28-30. Briefly, single cells were plated in ultralow attachment plates (Corning, N.Y.) at a density of 20,000 viable cells/mL in primary culture and 1000 cells/mL in passages. Cells were grown in a serum-free mammary epithelial growth medium without bovine pituitary extract (MEGM, BioWhittaker), but supplemented with serum substitute B27 (Invitrogen), 20 ng/mL, Epidermal Growth Factor (EGF), 20 ng/mL, and 20 ng/mL basic fibroblast growth factor (bFGF) (BD Biosciences). In order to passage sphere cells, spheres were collected into 15 ml conic tubes and allowed to settle for 15 minutes. Supernatant was removed. Sphere cells were dissociated enzymatically with 0.05% trypsin, 0.5 mM EDTA (Invitrogen) and mechanically by a glass Pasteur pipette. The cells obtained from dissociation were passed through a 40-μm sieve and analyzed microscopically for single cells and subjected to the experiments below.
as §2

[1] = rat, U.S. National Toxicology Program acute toxicity studies; cited from earlier work
MDA-MB-435 tumor = assay: Antitumor activity in nude mouse xenograft model, MDA-MB-435; assay type: in vivo
Description: (§3) FIGS. 5A-5F. […] Experiment was performed as described in FIG. 3 and Materials and Methods. B: Structure of NSC125034 and 8Q. […] D: In vivo effect of 8Q (4 mg/Kg) by intratumor injection. […] Mice were treated twice weekly for 3 weeks. Tumor sizes were measured weekly. E: In vivo effect of 8Q (20 mg/Kg) by tail vein injection on two different types of breast cancer cell lines, MCF7 (estrogen dependent, xenograft model reflect the early-stage breast malignancy) and MDA-MB435 (estrogen […], xenograft model reflect the later-stage breast malignancy). Mice were treated twice weekly for 4 weeks. (1) MCF7 xenograft (2) MDA-MB435 xenograft. F: Total body weight of individual mouse in the tail vein injection experiment was determined weekly and the average body weight was plotted.
(§4) Antitumor activity in xenograft model. […] Stock solutions of paclitaxel alone, 8-Quinolinol (8Q) alone or in combination with paclitaxel were prepared by dissolving the drugs in a vehicle solution (EtOH:cremophor, 50:50 v/v). Vehicle or paclitaxel alone, 8Q alone and 8Q in combination with paclitaxel stock solution were mixed with saline (10:90 v/v). For intratumor injection, the 8Q dose was 4 mg/kg, given twice weekly for three weeks. […] The tumor volumes were determined by measuring the length (l) and the width (w) and calculating the volume (V=lw^2/2). […]

[2] = in words; solvent DMSO or ethanol
[3] = mouse, U.S. National Toxicology Program acute toxicity studies; cited from earlier work
MCF7 SP cells = assay: cells; conditions: Homo sapiens, MCF7, read-out: growth inhibition
Description: (§5) To identify and sort SP and non-SP fractions, cells were washed with phosphate buffered saline (PBS) and detached from the culture dish with trypsin and EDTA, pelleted by centrifugation, and resuspended in 37° C. DMEM containing 2% FBS at 1×10^6 cell/ml. Cell staining was performed according to the protocol originally developed by Goodell et al with slight modification^46. […] Following staining, the cells were spun down and resuspended in Hanks'Balanced Salt Solution (HBSS) (Invitrogen) containing 1 μg/ml propidium iodide and maintained at 4° C. for flow cytometry analysis/sorting. Cell analysis and sorting were performed on a MoFlo cytometer (Dako Cytomation, Fort Collins, Colo. USA) equipped with a Coherent Enterprise II laser emitting MLUV at 351 nm and blue 488 nm lines.
(§6) Cell proliferation assay. To test the sensitivity of MCF7 and MCF7 sphere cells to specific compounds, both MCF7 and MCF7 sphere single cells were seeded at 3×10^4 cells/ml in 96-well plates. After overnight incubation, serial concentrations of tested compounds were added. Each concentration was repeated three times. These cells were incubated in a humidified atmosphere with 5% CO2 for 3 days. […] The medium was removed and formazan was dissolved in DMSO and the optical density was measured at 590 nm using a Bio-assay reader (Bio-Rad, USA).

MCF7 non-SP cells = assay: cells; conditions: Homo sapiens, MCF7, read-out: growth inhibition
Description: as §5, §6

MCF7 xenograft = conditions: tail vein injection, 8Q 20 mg/kg twice weekly for 4 weeks, FIG. 5E(1)
Description: as §3, §4

[4] = tail vein, 20 mg/kg, nude mice
Description: as §3, §4

NF-κB [5] = assay: Trans-AM NF-κB assay on nuclear extracts of MCF7 sphere cells; assay type: cell-based, human; conditions: 5 μM, 24 hours
Description: (§7) FIGS. 3A-3B. A: Susceptibility of MCF7 and MCF7 sphere cells PI3K pathway inhibitor, rapamycin and NF-κB pathway inhibitors, PTL and PDTC at indicated doses. Experiment was performed as described in FIG. 2 and Materials and Methods. B: Inhibition of NF-κB activity of MCF7 and MCF7 sphere cells after treatment with PTL and PDTC at indicated concentrations. Cells were treated with these compounds at indicated doses for 24 hours. Nuclear extract was prepared from control and treated cells. The quantification of NF-κB activation was performed according to product manual. Nuclear extract preparation. […] After the nuclear lysates were centrifuged, supernatants were collected for quantification of NF-κB activation. The protein concentrations in the supernatants were determined using the BCA protein assay kit (Pierce, Rockford, Ill.). Quantification of NF-κB activation. Trans-AM NF-κB assay, an enzyme-linked immunosorbent assay (ELISA)-based method (Trans-AM NF-κB; Active Motif, Carlsbad, Calif.) was used for NF-κB activity quantification according to the manufacturer's instruction. Briefly, cell nuclear extracts were placed in 96-well plates coated with an oligonucleotide containing the NF-κB consensus sequence, and the presence of active NF-κB was detected by using antibodies specific for p50 subunits that are not complexed to IκB and thus able to bind the consensus sequence. […]

NF-κB [6] = assay: Trans-AM NF-κB assay on nuclear extracts of MCF7 cells; assay type: cell-based; conditions: Homo sapiens, 24 hours
Description: as §7

[7] = comparison sphere versus parental cells, in words

## Oc1cccc2cccnc12 [8Q, 8-quinolinol]
MCF7 cells; Homo sapiens, MCF7, 72 h, read-out: growth inhibition
  inhibition at 5 µM: 30%
MCF7 sphere cells; Homo sapiens, 72 h, 5 μM, three day treatment, MCF7 sphere cells, read-out: growth inhibition
  inhibition at 5 µM: 86%
MCF7 sphere cells; [7]
  growth inhibition on MCF7 sphere cells compared with MCF7 cells: preferentially inhibit the cancer stem cells over bulk cancer cells
[1]
  LD50 (oral): 1.2 g/kg
MDA-MB-435 tumor; intratumor injection, 8Q 4 mg/kg twice weekly for 3 weeks, FIG. 5D
  tumor growth inhibition: significantly inhibited tumor growth
[2]
  solubility: Ethanol soluble
[3]
  LD50 (oral): 20 g/kg
MCF7 SP cells
  inhibition at 5 µM: 84.7%
MCF7 non-SP cells
  inhibition at 5 µM: 71.9%
MCF7 xenograft
  tumor growth inhibition: significantly inhibited tumor growth
[4]
  toxicity judged by apparent symptoms and body weight loss: did not show significant toxicity

## CCCC[C@@H](C=O)NC(=O)[C@H](CC(C)C)NC(=O)[C@H](CC(C)C)NC(=O)OCc1ccccc1 [GSI1] (Cbz-Leu-Leu-[Nle]-aldehyde)
MCF7 sphere cells; [7]
  growth inhibition on MCF7 sphere cells compared with MCF7 cells: did not inhibit MCF7 sphere cells more than the MCF7 parental cells; also recorded: no higher growth inhibitor ability on MCF7 sphere cells than MCF7 cells

## S=C(S)N1CCCC1 [PDTC, pyrrolidine dithiocarbamate]
MCF7 cells; 1 uM, MCF7 cells
  growth inhibition: no growth inhibition effects
MCF7 sphere cells; Homo sapiens, 1 uM, MCF7 sphere cells, read-out: growth inhibition
  inhibition at 1 µM: 50.8%
MCF7 sphere cells; [7]
  growth inhibition on MCF7 sphere cells compared with MCF7 cells: inhibit MCF7 sphere cells more strongly than the parental MCF7 cells; also recorded: very marked growth inhibition on MCF7 sphere cells compared to MCF7 cells
NF-κB [5]
  decrease of NF-κB activity: 61.8%
NF-κB [6]
  inhibition at 5 µM: 33.6%

## CC1=C2C[C@H]3[C@@H](CC=C4C[C@@H](O)CC[C@@]43C)[C@@H]2CC[C@]12O[C@@H]1C[C@H](C)CN[C@H]1[C@H]2C [cyclopamine]
MCF7 sphere cells
  growth inhibition on MCF7 sphere cells compared with MCF7 cells: did not inhibit MCF7 sphere cells more than the MCF7 parental cells; also recorded: no higher growth inhibitor ability on MCF7 sphere cells than MCF7 cells

## CC(=O)O[C@H]1C(=O)[C@@]2(C)[C@H]([C@H](OC(=O)c3ccccc3)[C@]3(O)C[C@H](OC(=O)[C@H](O)[C@@H](NC(=O)c4ccccc4)c4ccccc4)C(C)=C1C3(C)C)[C@]1(OC(C)=O)CO[C@@H]1C[C@@H]2O [paclitaxel]
MCF7 cells; Homo sapiens, 72 h, 0.25 uM, 3 days, MCF7 parental cells, read-out: growth inhibition
  inhibition at 0.25 µM: 44.5%
MCF7 sphere cells; Homo sapiens, 72 h, 0.25 uM, 3 days, MCF7 sphere cells, read-out: growth inhibition
  inhibition at 0.25 µM: 6.1%
MDA-MB-435 tumor; positive control, paclitaxel 15 mg/kg
  tumor growth inhibition: inhibited the tumor growth as expected

B1: DKK1: Wnt pathway inhibitor (protein, UniProt O94907 32-266, looked up)
Dickkopf-related protein 1: TLNSVLNSNAIKNLPPPLGGAAGHPGSAVSAAPGILYPGGNKYQTIDNYQPYPCAEDEECGTDEYCASPTRGGDAGVQICLACRKRRKRCMRHAMCCPGNYCKNGICVSSDQNHFRGEIEETITESFGNDHSTLDGYSRRTTLSSKMYHTKGQEGSVCLRSSDCASGLCCARHFWSKICKPVLKEGQVCTKHRRKGSHGLEIFQRCYCGEGLSCRIQKDHHQASNSSRLHTCQRH
MCF7 sphere cells; [7]
  growth inhibition on MCF7 sphere cells compared with MCF7 cells: no higher growth inhibitor ability on MCF7 sphere cells than MCF7 cells
MCF7 sphere cells; comparison sphere versus parental cells, in words, listed as DKKI
  growth inhibition on MCF7 sphere cells compared with MCF7 cells: did not inhibit MCF7 sphere cells more than the MCF7 parental cells
